Molecular target: T1, Dual specificity protein phosphatase 1 (Homo sapiens, UniProt P28562)
T1 sequence (P28562 whole entry): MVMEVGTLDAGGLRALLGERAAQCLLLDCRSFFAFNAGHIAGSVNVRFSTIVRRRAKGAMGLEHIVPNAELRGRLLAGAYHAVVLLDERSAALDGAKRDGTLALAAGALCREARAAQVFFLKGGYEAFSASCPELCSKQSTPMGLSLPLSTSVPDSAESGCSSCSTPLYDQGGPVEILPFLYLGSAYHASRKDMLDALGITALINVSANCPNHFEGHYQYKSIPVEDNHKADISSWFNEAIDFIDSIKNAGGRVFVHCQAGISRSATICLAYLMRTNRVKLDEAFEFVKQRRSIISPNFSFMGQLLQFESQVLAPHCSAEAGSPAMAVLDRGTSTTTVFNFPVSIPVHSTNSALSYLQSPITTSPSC
Test: MKP-1 phosphatase inhibitors, SAR follow-up, biochemical, in vitro (AID 579)
Settings: pH 7; 23 °C

Row | IC50 | SMILES
1 | > 50 µM | CC(C)Cn1c(N)c(C(=O)CCl)c(=O)n(C)c1=O [6-amino-5-(2-chloro-1-oxoethyl)-3-methyl-1-(2-methylpropyl)pyrimidine-2,4-dione]
2 | > 50 µM | CN(C)/C=N/c1cc(=O)n(Cc2ccccc2)c(=O)n1C [CC-PMLSC-DMA-P131]
3 | 13.4 µM | Cn1c(=O)c(C(=O)COC(=O)c2cc(-c3ccco3)nc3ccccc23)c(N)n(Cc2ccccc2)c1=O [[2-(6-amino-1-benzyl-3-methyl-2,4-dioxopyrimidin-5-yl)-2-oxoethyl] 2-(furan-2-yl)quinoline-4-carboxylate]
4 | > 50 µM | CN(C)C=Nc1cc(=O)[nH]c(=O)n1C [N,N-dimethyl-N'-(3-methyl-2,6-dioxo-4-pyrimidinyl)methanimidamide]
5 | > 50 µM | Nc1cc(=O)[nH]c(=O)n1Cc1ccccc1 [6-amino-1-benzylpyrimidine-2,4-dione]
6 | > 50 µM | Cn1c(=O)c(C(=O)COC(=O)c2cc(C(F)(F)F)nc3ccccc23)c(N)n(Cc2ccccc2)c1=O [2-(trifluoromethyl)-4-quinolinecarboxylic acid [2-[4-amino-1-methyl-2,6-dioxo-3-(phenylmethyl)-5-pyrimidinyl]-2-oxoethyl] ester]
7 | > 50 µM | CC(C)Cn1c(N)c(C(=O)COC(=O)c2cc(C3CC3)nc3ccccc23)c(=O)n(C)c1=O [2-cyclopropyl-4-quinolinecarboxylic acid [2-[4-amino-1-methyl-3-(2-methylpropyl)-2,6-dioxo-5-pyrimidinyl]-2-oxoethyl] ester]
8 | 16.9 µM | Cn1c(N)c(C(=O)COC(=O)c2cc(-c3ccco3)nc3ccccc23)c(=O)n(Cc2ccccc2)c1=O [2-(2-furanyl)-4-quinolinecarboxylic acid [2-[6-amino-1-methyl-2,4-dioxo-3-(phenylmethyl)-5-pyrimidinyl]-2-oxoethyl] ester]
9 | > 50 µM | Cn1c(N)c(C(=O)COC(=O)c2cc(-c3ccccc3)nc3ccccc23)c(=O)n(C)c1=O [2-phenyl-4-quinolinecarboxylic acid [2-(4-amino-1,3-dimethyl-2,6-dioxo-5-pyrimidinyl)-2-oxoethyl] ester]
10 | > 50 µM | Cn1c(=O)c(C(=O)COC(=O)c2cc(C3CC3)nc3ccccc23)c(N)n(Cc2ccccc2)c1=O [2-cyclopropyl-4-quinolinecarboxylic acid [2-[4-amino-1-methyl-2,6-dioxo-3-(phenylmethyl)-5-pyrimidinyl]-2-oxoethyl] ester]
11 | > 50 µM | Cn1c(=O)c(C(=O)CCl)c(N)n(CC2CC2)c1=O [6-amino-5-(2-chloro-1-oxoethyl)-1-(cyclopropylmethyl)-3-methylpyrimidine-2,4-dione]
12 | > 50 µM | O=C(O)c1cc(C(F)(F)F)nc2ccccc12 [2-(trifluoromethyl)-4-quinolinecarboxylic acid]
13 | > 50 µM | NC(=O)NCC1CC1 [1-(cyclopropylmethyl)urea]
14 | > 50 µM | Cn1c(N)c(C(=O)COC(=O)c2cc(C(F)(F)F)nc3ccccc23)c(=O)n(C)c1=O [2-(trifluoromethyl)-4-quinolinecarboxylic acid [2-(4-amino-1,3-dimethyl-2,6-dioxo-5-pyrimidinyl)-2-oxoethyl] ester]
15 | > 50 µM | Cn1c(N)c(C(=O)COC(=O)c2cc(C(F)(F)F)nc3c(C(F)(F)F)cccc23)c(=O)n(Cc2ccccc2)c1=O [2,8-bis(trifluoromethyl)-4-quinolinecarboxylic acid [2-[6-amino-1-methyl-2,4-dioxo-3-(phenylmethyl)-5-pyrimidinyl]-2-oxoethyl] ester]
16 | > 50 µM | CN(C)/C=N/c1cc(=O)n(C)c(=O)n1CC1CC1 [CC-PMLSC-DMA-P142]
17 | > 50 µM | Cn1c(N)c(C(=O)COC(=O)c2ccnc3ccccc23)c(=O)n(C)c1=O [4-quinolinecarboxylic acid [2-(4-amino-1,3-dimethyl-2,6-dioxo-5-pyrimidinyl)-2-oxoethyl] ester]
18 | 28.9 µM | Cn1c(N)c(C(=O)COC(=O)c2cc(C3CC3)nc3ccccc23)c(=O)n(Cc2ccccc2)c1=O [2-cyclopropyl-4-quinolinecarboxylic acid [2-[6-amino-1-methyl-2,4-dioxo-3-(phenylmethyl)-5-pyrimidinyl]-2-oxoethyl] ester]
19 | > 50 µM | O=C(O)c1cc(C(F)(F)F)nc2c(C(F)(F)F)cccc12 [2,8-bis(trifluoromethyl)-4-quinolinecarboxylic acid]
20 | > 50 µM | Cn1c(N)cc(=O)n(Cc2ccccc2)c1=O [6-amino-1-methyl-3-(phenylmethyl)pyrimidine-2,4-dione]
21 | > 50 µM | CC(C)Cn1c(N)c(C(=O)COC(=O)c2cc(-c3ccccc3)nc3ccccc23)c(=O)n(C)c1=O [2-phenyl-4-quinolinecarboxylic acid [2-[4-amino-1-methyl-3-(2-methylpropyl)-2,6-dioxo-5-pyrimidinyl]-2-oxoethyl] ester]
22 | > 50 µM | Cn1c(N)c(C(=O)COC(=O)c2cc(-c3ccccc3)nc3ccccc23)c(=O)n(Cc2ccccc2)c1=O [2-phenyl-4-quinolinecarboxylic acid [2-[6-amino-1-methyl-2,4-dioxo-3-(phenylmethyl)-5-pyrimidinyl]-2-oxoethyl] ester]

Row | IC50 | SMILES
23 | 24.6 µM | Cn1c(=O)c(C(=O)COC(=O)c2cc(-c3ccco3)nc3ccccc23)c(N)n(CC2CC2)c1=O [2-(2-furanyl)-4-quinolinecarboxylic acid [2-[6-amino-1-(cyclopropylmethyl)-3-methyl-2,4-dioxo-5-pyrimidinyl]-2-oxoethyl] ester]
24 | > 50 µM | Cn1c(=O)c(C(=O)CCl)c(N)n(Cc2ccccc2)c1=O [6-amino-1-benzyl-5-(2-chloroacetyl)-3-methyl-pyrimidine-2,4-quinone]
25 | > 50 µM | Cn1c(N)c(C(=O)CCl)c(=O)n(Cc2ccccc2)c1=O [6-amino-3-benzyl-5-(2-chloroacetyl)-1-methyl-pyrimidine-2,4-quinone]
26 | > 50 µM | FC(F)(F)c1cc(Br)c2cccc(C(F)(F)F)c2n1 [4-bromanyl-2,8-bis(trifluoromethyl)quinoline]
27 | > 50 µM | Cn1c(N)c(C(=O)COC(=O)c2cc(C(F)(F)F)nc3ccccc23)c(=O)n(Cc2ccccc2)c1=O [2-(trifluoromethyl)-4-quinolinecarboxylic acid [2-[6-amino-1-methyl-2,4-dioxo-3-(phenylmethyl)-5-pyrimidinyl]-2-oxoethyl] ester]
28 | > 50 µM | N#CCC(=O)NC(=O)NCC1CC1 [2-cyano-N-(cyclopropylmethylcarbamoyl)acetamide]
29 | > 50 µM | Cn1c(N)c(C(=O)COC(=O)c2cc(C(F)(F)F)nc3c(C(F)(F)F)cccc23)c(=O)n(C)c1=O [2,8-bis(trifluoromethyl)-4-quinolinecarboxylic acid [2-(4-amino-1,3-dimethyl-2,6-dioxo-5-pyrimidinyl)-2-oxoethyl] ester]
30 | > 50 µM | CN(C)C=Nc1cc(=O)[nH]c(=O)n1Cc1ccccc1 [N'-[2,6-dioxo-3-(phenylmethyl)-4-pyrimidinyl]-N,N-dimethylmethanimidamide]
31 | > 50 µM | CN(C)/C=N/c1cc(=O)n(C)c(=O)n1Cc1ccccc1 [CC-PMLSC-DMA-P129]
32 | > 50 µM | NC(=O)NCc1ccccc1 [(phenylmethyl)urea]
33 | 50 µM | Cn1c(=O)c(C(=O)COC(=O)c2cc(-c3ccccc3)nc3ccccc23)c(N)n(Cc2ccccc2)c1=O [2-phenyl-4-quinolinecarboxylic acid [2-[4-amino-1-methyl-2,6-dioxo-3-(phenylmethyl)-5-pyrimidinyl]-2-oxoethyl] ester]
34 | > 50 µM | CC(C)Cn1c(N)c(C(=O)COC(=O)c2cc(C(F)(F)F)nc3ccccc23)c(=O)n(C)c1=O [2-(trifluoromethyl)-4-quinolinecarboxylic acid [2-[4-amino-1-methyl-3-(2-methylpropyl)-2,6-dioxo-5-pyrimidinyl]-2-oxoethyl] ester]
35 | > 50 µM | Nc1cc(=O)[nH]c(=O)n1CC1CC1
36 | > 50 µM | CN(C)C=Nc1cc(=O)[nH]c(=O)n1CC1CC1 [CC-PMLSC- DMA-P139]
37 | > 50 µM | Cn1c(=O)cc(N)n(Cc2ccccc2)c1=O [6-amino-1-benzyl-3-methyl-pyrimidine-2,4-quinone]
38 | > 50 µM | Oc1cc(C(F)(F)F)nc2c(C(F)(F)F)cccc12 [2,8-bis(trifluoromethyl)-1H-quinolin-4-one]
39 | > 50 µM | Cn1c(N)c(C(=O)CCl)c(=O)n(C)c1=O [6-amino-5-(2-chloro-1-oxoethyl)-1,3-dimethylpyrimidine-2,4-dione]
40 | > 50 µM | CC(C)Cn1c(N)c(C(=O)COC(=O)c2cc(C(F)(F)F)nc3c(C(F)(F)F)cccc23)c(=O)n(C)c1=O [2,8-bis(trifluoromethyl)-4-quinolinecarboxylic acid [2-[4-amino-1-methyl-3-(2-methylpropyl)-2,6-dioxo-5-pyrimidinyl]-2-oxoethyl] ester]
41 | > 50 µM | Cn1c(N)c(C(=O)COC(=O)c2cc(C3CC3)nc3ccccc23)c(=O)n(C)c1=O [2-cyclopropyl-4-quinolinecarboxylic acid [2-(4-amino-1,3-dimethyl-2,6-dioxo-5-pyrimidinyl)-2-oxoethyl] ester]
42 | > 50 µM | Cn1c(=O)c(C(=O)COC(=O)c2cc(C(F)(F)F)nc3c(C(F)(F)F)cccc23)c(N)n(Cc2ccccc2)c1=O [2,8-bis(trifluoromethyl)-4-quinolinecarboxylic acid [2-[4-amino-1-methyl-2,6-dioxo-3-(phenylmethyl)-5-pyrimidinyl]-2-oxoethyl] ester]
43 | > 50 µM | Cn1c(=O)c(C(=O)COC(=O)c2cc(C(F)(F)F)nc3c(C(F)(F)F)cccc23)c(N)n(CC2CC2)c1=O [2,8-bis(trifluoromethyl)-4-quinolinecarboxylic acid [2-[6-amino-1-(cyclopropylmethyl)-3-methyl-2,4-dioxo-5-pyrimidinyl]-2-oxoethyl] ester]
44 | > 50 µM | O=C(O)c1cc(-c2ccco2)nc2ccccc12 [2-(2-furanyl)-4-quinolinecarboxylic acid]
